The text below walks through data of patent US5364944A, “Substituted benzoylbenzene-, biphenyl- and 2-oxazole- alkanoic acid compounds” (American Home Products Corporation, priority 1993, dated 1994).

In assay [1] the test system is biosynthesis of LTB4 by isolated human neutrophils. Kind of assay: Inhibition of LTB4 biosynthesis by isolated human neutrophils (PMN). The class given is cell-based. The settings on record: Neutrophil, A23187 stimulated human PMN, read-out: % Inhibition of LTB4 Synthesis. The protocol: The ability of the compounds of the invention to inhibit the biosynthesis of LTB4 by isolated human neutrophils is evaluated in the following assay, which is carried out in this manner.
A leukocyte enriched blood sample obtained from a healthy donor is procured by leukophoresis using a Haemonetics model 30+ blood processor (Biological Specialties, Inc., Lansdale, Pa.). The top "platelet-rich" layer is removed after a low speed spin (35×g, 15 min, 25° C.) of the sample. The remaining cell suspension is centrigued (400×g, 10 min, 25° C.) to sediment the remaining cells. The supernatant is discarded and the cell pellet resuspended in 120 ml HBSS (without Ca^++ /Mg++). The cell suspension is subjected to ficoll-hypaque sedimentation (Histopaque 1077, 400×g, 30 min, 25° C.). Contaminating erythrocytes are lysed by hypotonic shock (1 min). The cells are then washed once with 40 ml of HBSS and resuspended with HBS S (without Ca^++ /Mg^++) to a concentration of 2.5×10^7 cells/ml for further use. Greater than 95% purity is obtained as assessed by microscopic examination.
One ml of human PMN (2.5×10^7 cells/ml) is incubated with vehicle or drugs (10 μl) for 10 min at 30° C. After preincubation, an equal volume of HBSS (1 ml) containing 2.4 mM CaCl2, 6 μM calcium ionophore A23187 and 50 μCi[^3 H]-acetate is then incubated at 30° C. for 15 minutes. An aliquot (100 μl) of the reaction mixture is taken out and mixed with 900 μl of 15% ethanol. LTB4 is extracted by using solid phase extraction on reverse phase C18 columns to remove excess [^3 H]-acetate and PAF. The C18 column is prewashed once with 2 ml of ethanol and water. The sample aliquot is acidified with 0.1 N HCl to pH3 before applying to the column. The column is then washed with 2 ml of water followed by 2 ml of 15% ethanol and 2 ml of petroleum ether to remove excess labeled acetate. The sample is eluted with 2 ml of ethyl acetate. The collected samples are dried with nitrogen and resuspended in 0.5 ml RIA buffer. The quantity of LTB4 in the sample is obtained from RIA determination.
Data presented are the mean +/- s.d. of the values relative to control A23187 stimulated cells for each experiment assayed in triplicate. Percent inhibition when used is calculated as:
% Inhibition=100-[(×.div.Control )×100]
Dose response analysis is performed by non-linear regression analysis for curve fitting and IC50 determination.

For assay [2], the target named is T1, LTD4-induced contractions of isolated guinea pig trachea (Cavia porcellus, UniProt Q2NNR5).
T1 construct: isolated guinea pig trachea; from tissue; host or cells: tracheal rings of male Hartley guinea pigs
T1 sequence (Q2NNR5 1-340): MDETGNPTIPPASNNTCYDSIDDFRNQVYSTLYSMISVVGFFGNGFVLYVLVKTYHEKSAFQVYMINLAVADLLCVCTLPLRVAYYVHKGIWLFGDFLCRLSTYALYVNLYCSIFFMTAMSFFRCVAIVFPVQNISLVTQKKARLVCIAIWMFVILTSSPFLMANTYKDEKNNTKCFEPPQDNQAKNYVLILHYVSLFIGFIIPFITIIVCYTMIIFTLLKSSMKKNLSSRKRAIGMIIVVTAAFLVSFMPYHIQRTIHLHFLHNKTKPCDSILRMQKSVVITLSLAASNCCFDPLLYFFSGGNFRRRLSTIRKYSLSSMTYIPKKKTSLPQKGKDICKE
Kind of assay: In vitro isolated guinea pig trachea assay, LTD4 antagonist activity. Details: species or system guinea pig (male Hartley). To be noted: 1 × 10^-5 M. The protocol: The LTD4 antagonist activity of the compounds of the invention is assessed in the in vitro isolated guinea pig trachea assay. This assay is carried out as follows: Male Hartley guinea pigs (350-400 g) are euthanized by a blow to the head, the neck is opened and the trachea removed. The trachea is maintained in aerated physiological salt solution, cleared of connective tissue and fat and cut into rings approximately 2 mm in width (usually containing two cartilaginous segments per ring). Two pieces of silk suture are then passed through the lumen of the tracheal ting and are tied around the cartilage, one on each side of the trachealis muscle. The tracheal ring is suspended between a glass hook and a force displacement transducer in a 10 ml organ bath for measurement of isometric tension. […] The tracheal rings are maintained at 2 g resting tension and equilibrated for 45 minutes (with frequent washing and readjustment of resting tension). The tracheal […] contracted by the addition of carbachol (3×10^-6 M), to determine tissue responsiveness and establish a reference contraction. On attainment of a stable level of contraction (approximately 30 minutes), the tissues are washed several times until baseline tension has been restored and the re-equilibrated for 30 minutes. The tissues are then incubated for 45 minutes with a test antiagonist (either 1×10^-6 M or 1×10^-5 M) or 10 μl of an appropriate solvent control (control, nontreated). One tissue in each group serves as the control. Twenty minutes prior to the construction of the LTD4 cumulative concentration-response curve, L-[…]×10^-2 M final bath concentration) is added to inhibit bioconversion of LTD4 to LTE4. Only one LTD4 concentration-response curve is constructed in each tissue. All responses to LTD4 in an individual tissue are measured as a percentage of the reference contraction of that tissue to carbachol. LTD4 antagonist activity is determined by comparison of the concentration response curves of LTD4 in the presence and absence of antagonist. Assessment of the relative rightward shift of the antagonist treated curve relative to the solvent (control) treated tissue is calculated as a concentration ratio (Eq. A) and used in subsequent calculations to derive an antagonist pKB value (Eqs. B and C). […] If a compound is found to be active and/or depress the maximal response to LTD4, then a range of concentrations of the test compound should be used generating multiple concentration ratios which would then be used to perform a Schild analysis, and determination of a pA2 value where appropriate.

The structures appear in SMILES notation.

Broadly, the inhibition is the change of the read-out against control, counted positive when it falls. By Kb is commonly meant the affinity of an antagonist, worked out from how it opposes an agonist. Higher therefore signals lower antagonist affinity. Consider `CC(C(=O)N(C)O)c1ccc(-c2ccc(OCc3csc(-c4ccccc4)n3)cc2)cc1` (stereo not drawn) [Example 21, N-Hydroxy-N,α-dimethyl-4'-[(2-phenylthiazol-4-yl)methoxy][1,1'-biphenyl]-4-acetamide], for which the inhibition at 2.5 µM in assay [1] was determined as 91.2%. The compound further showed a Kb in assay [2] of over 10 µM.
